Measurements as given in the SangsterLogP compilation.

Assay: method code SF-AS, from Dearden, C.; O'Hara, H. (1978). Partition coefficients of some alkyl derivatives of 4-acetamidophenol. Eur J Med Chem, 13(5)415-419.

In the case of `CC(=O)Nc1cc(C)c(O)c(C)c1`, the logP is reported as 1.11.

Work on `CC(=O)Nc1ccc(O)c(C(C)(C)C)c1` yielded a logP of 2.36.

With `CC(=O)Nc1c(C)c(C)c(O)c(C)c1C` the logP was 0.95.

Work on `CC(=O)Nc1ccc(O)c(C)c1` yielded a logP of 0.79.

For `CC(=O)Nc1cc(C)c(O)cc1C`, the logP was 0.6.

For `CC(=O)Nc1c(C)cc(O)cc1C`, the logP was 0.31.

With `CCc1cc(NC(C)=O)cc(CC)c1O` the logP was 1.87.

In the case of `CC(=O)Nc1ccc(O)cc1C`, the logP is reported as 0.17.

`CC(=O)Nc1c(C)cc(O)c(C)c1C` gave a logP of 0.75.

`CC(=O)Nc1cc(C)c(O)c(C)c1C` gave a logP of 0.82.

Work on `CCc1cc(NC(C)=O)ccc1O` yielded a logP of 1.31.

`CC(=O)Nc1ccc(O)c(C)c1C` gave a logP of 0.57.

Work on `CC(=O)Nc1cc(C(C)(C)C)c(O)c(C(C)(C)C)c1` yielded a logP of 3.18.

`CC(=O)Nc1ccc(O)c(C(C)C)c1` showed a logP of 1.71.
